{"source": "patent US20210361767A1", "about": "“RESCUING CANCER PATIENTS FROM RESISTANCE TO TREATMENT WITH INHIBITORS OF PD-1/PD-L1 INTERACTIONS” (Mayo Foundation for Medical Education and Research, priority 2018, published 2021)", "molecules": {"B1": {"name": "ADAM10: exogenous recombinant ADAM10 (protein)", "chain": "TTSAEKNTCQLYIQTDHLFFKYYGTREAVIAQISSHVKAIDTIYQTTDFSGIRNISFMVKRIRINTTADEKDPTNPFRFPNIGVEKFLELNSEQNHDDYCLAYVFTDRDFDDGVLGLAWVGAPSGSSGGICEKSKLYSDGKKKSLNTGIITVQNYGSHVPPKVSHITFAHEVGHNFGSPHDSGTECTPGESKNLGQKENGNYIMYARATSGDKLNNNKFSLCSIRNISQVLEKKRNNCFVESGQPICGNGMVEQGEECDCGYSDQCKDECCFDANQPEGRKCKLKPGKQCSPSQGPCCTAQCAFKSKSEKCRDDSDCAREGICNGFTALCPASDPKPNFTDCNRHTQVCINGQCAGSICEKYGLEECTCASSDGKDDKELCHVCCMKKMDPSTCASTGSVQWSRHFSGRTITLQPGSPCNDFRGYCDVFMRCRLVDADGPLARLKKAIFSPELYENIAE"}}, "key": {"CD8+ T cells [1]": {"tested_on": "CD8+ T cells", "assay": "CD8+ T cell survival with Karpas-299 supernatants, TMRE/Annexin-V flow cytometry", "format": "cell-based, human", "conditions": "for survival of CD8+ T cells: with Karpas-299 supernatant", "description": "CD8+ T cells isolated from healthy subjects were incubated in the presence of 50% Karpas-299 supernatants of varying types and 50% fresh cell culture media. Supernatant types included sPD-L1-rich supernatants from Karpas-299 cells, supernatants from Karpas-299 cells treated with TAPI-0 to prevent sPL-L1 production, supernatants from Karpas-299 cells “spiked” with TAPI-0 after sPD-L1 production, and fresh culture media controls (FIG. 5C). Karpas-299 cell supernatants were generated by incubation at 10 MM cells/ml for 48 hours. TMRE/Annexin-V binding was measured by flow cytometry to assess the level of CD8+ T cell survival. Antibodies and reagents used for flow cytometry were Annexin-V-FITC, anti-mouse CD16/32 (BioLegend; San Diego, Calif.); anti-PD-L1, mouse isotype control (eBioScience/Thermo Fisher Scientific; Waltham, Mass.), TMRE-PE (Abcam; Cambridge, Mass.), BD Wash/Perm (Becton Dickenson; Waltham, Mass.). Flow cytometry was performed and analyzed using FlowJo (Treestar; Ashland, Oreg.).\nCD8+ T cells were incubated with supernatants from Karpas-299 cells as above, plus varying doses of several anti-PD-1 antibodies.\n(§1) Karpas-299 lymphoma cells producing sB7-H1 were cultured with an array of protease inhibitors. Supernatants from these cultures were isolated and analyzed for sB7H1 concentration by ELISA. Subsequently, activated human CD8+ T cells were cultured with recombinant sB7H1 protein and cell survival was measured at 24 hours. CD8+ T cells also were cultured with sB7H1-rich tumor cell line supernatants versus sB7H1-depleted supernatants over 48 hours in the presence of placebo, low dose (10 nM), or high dose (1 μM) anti-PD-1 antibody pembrolizumab, and cell survival was measured."}, "CD8+ T cells [2]": {"tested_on": "CD8+ T cells", "assay": "CD8+ T cell survival with sPD-L1-rich Karpas-299 supernatant, with or without checkpoint inhibitors (trypan blue)", "format": "cell-based, human", "conditions": "with sPD-L1-rich Karpas-299 supernatant, therapeutic doses of checkpoint inhibitor, n=3, FIG. 5B", "description": "FIG. 5A is a graph plotting survival of CD8+ human T cells cocultured in the presence of PBS control or 5 μg/ml or 10 μg/ml recombinant sPD-L1. […] FIG. 5B is a graph plotting survival of CD8+ human T cells cultured in the presence of PBS control or sPD-L1-rich Karpas-299 cell line supernatant, in the presence or absence of PD1 or PD-L1 checkpoint inhibitors. Cell survival was measured by trypan blue staining. […] FIGS. 5C and 5D are a series of flow cytometry plots indicating survival of CD8+ T cells treated with various cell extracts and an anti-PD-1 antibody (nivolumab or pembrolizumab) or an anti-PD-L1 antibody (atezolizumab). FIG. 5C, CD8+ T cells isolated from healthy subjects were incubated with sPD-L1-rich supernatants from Karpas-299 cells, supernatants from Karpas-299 cells treated with inhibitor TAPI-0, supernatants from Karpas-299 cells “spiked” with TAPI-0 after isolation, and controls (top), and TMRE uptake/Annexin-V binding was measured by flow cytometry to assess the level of CD8+ T cell survival. CD8+ T cells also were incubated with supernatants from Karpas-299 cells, plus the indicated doses of anti-PD-1 and anti-PD-L1 antibodies (bottom). FIG. 5D, CD8+ T cells were incubated with PD-L1-rich supernatants from A787-0 RCC cells and the indicated concentrations of pembrolizumab. […]"}, "CD8+ T cells [3]": {"tested_on": "CD8+ T cells", "assay": "CD8+ T cell survival with A786-0 supernatant plus pembrolizumab", "format": "cell-based, human", "conditions": "supernatants from A786-0 RCC cells (20% A786-0 supernatant), increasing concentrations; partial rescue; FIG. 5D", "description": "FIG. 5A is a graph plotting survival of CD8+ human T cells cocultured in the presence of PBS control or 5 μg/ml or 10 μg/ml recombinant sPD-L1. […] FIG. 5B is a graph plotting survival of CD8+ human T cells cultured in the presence of PBS control or sPD-L1-rich Karpas-299 cell line supernatant, in the presence or absence of PD1 or PD-L1 checkpoint inhibitors. Cell survival was measured by trypan blue staining. […] FIGS. 5C and 5D are a series of flow cytometry plots indicating survival of CD8+ T cells treated with various cell extracts and an anti-PD-1 antibody (nivolumab or pembrolizumab) or an anti-PD-L1 antibody (atezolizumab). FIG. 5C, CD8+ T cells isolated from healthy subjects were incubated with sPD-L1-rich supernatants from Karpas-299 cells, supernatants from Karpas-299 cells treated with inhibitor TAPI-0, supernatants from Karpas-299 cells “spiked” with TAPI-0 after isolation, and controls (top), and TMRE uptake/Annexin-V binding was measured by flow cytometry to assess the level of CD8+ T cell survival. CD8+ T cells also were incubated with supernatants from Karpas-299 cells, plus the indicated doses of anti-PD-1 and anti-PD-L1 antibodies (bottom). FIG. 5D, CD8+ T cells were incubated with PD-L1-rich supernatants from A787-0 RCC cells and the indicated concentrations of pembrolizumab.\nIn brief, A786-0 cells were incubated at 10 MM cells/ml for 48 hours. […]"}, "[4]": {"tested_on": "A786-0 (renal cell carcinoma) cells", "assay": "sPD-L1 ELISA of supernatants of A786-0 cells treated with protease inhibitors", "format": "cell-based", "conditions": "A786-0 at 1 MM/ml, interferon plus TAPI-0; interferon alone 923 pg/ml; n=5; FIG. 4E", "description": "Tumor cells were treated with PBS (placebo) or with various protease inhibitors, including MMP inhibitors TAPI-2 and TAPI-0, aspartic protease inhibitor Pepstatin, cysteine protease inhibitor E-64, serine protease inhibitor Aprotinin, combinations of these inhibitors, and an array of other MMP inhibitors. Cell supernatants were queried for sPD-L1 by ELISA. FIG. 4A, Karpas-299 (lymphoma) cells were treated with the indicated protease inhibitors. FIG. 4B, A786-0 (renal cell carcinoma) cells were treated with the indicated protease inhibitors. FIG. 4C, Dul45 cells were treated with the indicated protease inhibitors. FIG. 4D, Mel-B7H1 (transgenic melanoma) cells were treated with the indicated protease or metalloprotease inhibitors. FIG. 4E is a graph plotting sPD-L1 production induced by interferon treatment or high cell titer in A786-0 cells. Cells grown at 1 MM/ml in control DMSO produced little sPD-L1. […] FIG. 4F is a graph plotting the amount of sPD-L1 in supernatants of Karpas-299 cells treated with control or with varying concentrations of the ADAM10/17 inhibitor aderbasib.\nSeveral tumor cell lines were treated with PBS (placebo) or with various protease inhibitors, including matrix metalloprotease inhibitors TAPI-2 and TAPI-0, aspartic protease inhibitor Pepstatin, cysteine protease inhibitor E-64, serine protease inhibitor Aprotinin, combinations of these inhibitors, and an array of other matrix metalloprotease inhibitors. Cell supernatants were queried for sPD-L1 by ELISA as published elsewhere (Frigola et la., supra). In brief, paired mouse IgG2 monoclonal antibodies against extracellular rhB7-H1 were utilized in a capture-detection plate assay using biotinylation and HRP-streptavidin detection. […] Concentrations were determined by optical density measurements along a known standard curve of rhB7-H1. […] Two-sided, unpaired Student t tests assessed statistical differences in experimental groups except where otherwise indicated. […]"}, "PD-L1 mRNA": {"tested_on": "PD-L1 mRNA", "assay": "PD-L1 mRNA expression by RT-PCR in Karpas-299 cells", "format": "cell-based", "conditions": "Karpas-299, 50 μM TAPI-0, 24 hours; data not shown"}, "Karpas-299 cells": {"tested_on": "Karpas-299 cells", "assay": "sPD-L1 ELISA of supernatants of Karpas-299 cells treated with protease inhibitors", "format": "cell-based", "description": "(§2) Several tumor cell lines were treated with PBS (placebo) or with various protease inhibitors, including matrix metalloprotease inhibitors TAPI-2 and TAPI-0, aspartic protease inhibitor Pepstatin, cysteine protease inhibitor E-64, serine protease inhibitor Aprotinin, combinations of these inhibitors, and an array of other matrix metalloprotease inhibitors. Cell supernatants were queried for sPD-L1 by ELISA as published elsewhere (Frigola et la., supra). In brief, paired mouse IgG2 monoclonal antibodies against extracellular rhB7-H1 were utilized in a capture-detection plate assay using biotinylation and HRP-streptavidin detection. […] Concentrations were determined by optical density measurements along a known standard curve of rhB7-H1. Karpas-299 cells were incubated at 10 MM cells per ml in cell culture media (RPMI plus FBS plus Penicillin/Streptomycin plus buffering reagents) over 24 hours in the presence of 1 μl/100 μl DMSO or PBS (placebo), TAPI-2 at 278 μM, Pepstatin at 206.5 μM, E-64 at 185 μM, or Aprotinin at 220 μM, or a combination of the above materials at various concentrations. […] All statistical analyses were performed using R! software. Two-sided, unpaired Student t tests assessed statistical differences in experimental groups except where otherwise indicated. P values indicate comparison to vehicle control groups. P<0.05 was considered statistically significant.\nSubsequent studies were conducted in which Karpas-299 cells were incubated with different matrix metalloprotease inhibitors with varying specificities. For example, Karpas-299 cells were incubated at 10 MM cells per ml in cell culture media over 24 hours in the presence of 1 μl/100 μl DMSO (control), 50 μM TAPI-2, 50 μM TAPI-0, 50 μM GI254023X, 5 μM Ro 32-3555, 5 μM ARP 101, 50 μM UK 370106, 500 pM MMP-9 inhibitor I, 5 μM Doxycycline, or some combination thereof.\nAderbasib is a selective inhibitor of matrix metalloproteases ADAM10 and ADAM17. Karpas-299 cells were incubated at 1 MM-10 MM cells/ml and treated for 24 hours with concentrations of aderbasib ranging from 320 pM to […].\nas §1"}, "[5]": {"tested_on": "Dul45 prostate cancer cells", "assay": "sPD-L1 ELISA of supernatants of Dul45 prostate cancer cells", "format": "cell-based", "conditions": "FIG. 4C", "description": "as §2\nFurther studies were conducted using different types of cells."}, "A549 cells": {"tested_on": "A549 cells", "assay": "PD-L1 flow cytometry of A549 cells", "format": "cell-based", "conditions": "vs DMSO, FIGS. 7C, 7D", "description": "FIGS. 7A and 7B are flow cytometry plots and graphs showing that cell PD-L1 expression is restored by treatment with an inhibitor of ADAM10 and/or ADAM17, and is decreased by treatment with exogenous recombinant ADAM10 or ADAM17. Cells were incubated in the presence of the indicated treatments, and PD-L1 flow cytometry was performed."}}}
{"molecule": "pembrolizumab: humanized anti-PD-1 antibody, trade name KEYTRUDA", "values": [{"measurement": "sB7-H1-containing supernatant-induced CD8+ T cell death", "setting": "CD8+ T cells [1]; Example 3, 48 hours, high dose (1 μM)", "result": "decreased"}, {"measurement": "survival of CD8+ T cells", "setting": "CD8+ T cells [1]; antibody at 10 nM, FIG. 5C", "result": "increased the survival"}, {"measurement": "survival of CD8+ T cells", "setting": "CD8+ T cells [1]; antibody at 1 μM, 1 μM pembrolizumab among the most effective, FIG. 5C", "result": "increased the survival"}, {"measurement": "rescue of CD8+ T cell survival", "setting": "CD8+ T cells [2]", "result": "did not rescue"}, {"measurement": "survival of CD8+ T cells", "setting": "CD8+ T cells [3]", "result": "increased the survival"}]}
{"molecule": "CC(C)C[C@H](CC(=O)NO)C(=O)N[C@@H](Cc1ccc2ccccc2c1)C(=O)N[C@@H](C)C(N)=O", "note": "[TAPI-0]", "values": [{"measurement": "rate of apoptosis of CD8+ T cells", "setting": "CD8+ T cells [1]; 50% supernatant from TAPI-0 treated Karpas-299 cells and 50% fresh media, FIG. 5C", "result": 2.46, "unit": "%"}, {"measurement": "CD8+ T cell death", "setting": "CD8+ T cells [1]; Karpas-299 supernatants with added TAPI-0", "result": "did not induce cell death"}, {"measurement": "mean sPD-L1 production", "setting": "[4]", "result": 0, "unit": "pg/mL"}, {"measurement": "PD-L1 mRNA expression", "setting": "PD-L1 mRNA", "result": "without reducing PD-L1 mRNA expression"}, {"measurement": "Karpas-299 production of sB7H1", "setting": "Karpas-299 cells; Example 3, supernatants by ELISA, p<0.0001", "result": "inhibited"}, {"measurement": "secretion of sPD-L1", "setting": "Karpas-299 cells; Karpas-299, 10 MM cells per ml, 24 hours, 50 μM TAPI-0, vs DMSO, FIG. 4A, p=3.97×10^−7", "result": "reduced the secretion of sPD-L1"}, {"measurement": "sPD-L1 secretion versus controls", "setting": "[5]", "result": "significantly reduced"}]}
{"molecule": "B1", "values": [{"measurement": "PD-L1 expression (flow cytometry)", "setting": "A549 cells", "result": "decreased"}]}
